Source: ChEMBL document CHEMBL5126508, “Therapeutic potential of quinazoline derivatives for Alzheimer's disease: A comprehensive review” (Eur J Med Chem, 2022)

Legend:
[1] = Inhibition of PDE7 (unknown origin); set-up: species or system Homo sapiens
[2] = molecular target: T1, Beta-secretase 1 (Homo sapiens, UniProt P56817); experiment: Inhibition of recombinant human BACE1 using fluorogenic 7-methoxycoumarin-4-yl)acetyl-Ser-Glu-Val-Asn-Leu-Asp-Ala-Glu-Phe-ArgLys(2, 4-dinitrophenyl)-Arg-Arg-NH2 as substrate measured every 5 mins for 120 mins by CFA
T1 sequence (P56817 whole entry): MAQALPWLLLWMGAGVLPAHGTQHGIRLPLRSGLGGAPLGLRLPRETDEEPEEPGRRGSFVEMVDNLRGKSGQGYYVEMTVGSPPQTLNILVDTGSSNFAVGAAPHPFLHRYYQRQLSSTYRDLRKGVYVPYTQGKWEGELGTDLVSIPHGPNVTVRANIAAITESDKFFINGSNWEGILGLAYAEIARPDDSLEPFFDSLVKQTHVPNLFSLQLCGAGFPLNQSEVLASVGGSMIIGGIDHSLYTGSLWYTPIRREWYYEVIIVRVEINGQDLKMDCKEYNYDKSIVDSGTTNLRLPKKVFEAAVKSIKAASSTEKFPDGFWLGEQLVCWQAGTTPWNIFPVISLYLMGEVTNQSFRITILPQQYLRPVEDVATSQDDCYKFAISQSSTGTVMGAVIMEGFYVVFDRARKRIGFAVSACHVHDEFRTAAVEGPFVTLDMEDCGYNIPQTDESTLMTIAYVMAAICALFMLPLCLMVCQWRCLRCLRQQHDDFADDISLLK

[3] = molecular target: T1, Beta-secretase 1; experiment: Inhibition of recombinant human BACE1 in human SH-SY5Y cells using fluorogenic 7-methoxycoumarin-4-yl)acetyl-Ser-Glu-Val-Asn-Leu-Asp-Ala-Glu-Phe-ArgLys(2, 4-dinitrophenyl)-Arg-Arg-NH2 as substrate measured every 5 mins for 120 mins by WCA; type: cell-based
[4] = system: SH-SY5Y; experiment: Cytotoxicity against human SH-SY5Y cells; type: functional, cell-based
[5] = molecular target: T2, Acetylcholinesterase (Homo sapiens, UniProt P22303); experiment: Inhibition of AChE (unknown origin)
T2 sequence (P22303 whole entry): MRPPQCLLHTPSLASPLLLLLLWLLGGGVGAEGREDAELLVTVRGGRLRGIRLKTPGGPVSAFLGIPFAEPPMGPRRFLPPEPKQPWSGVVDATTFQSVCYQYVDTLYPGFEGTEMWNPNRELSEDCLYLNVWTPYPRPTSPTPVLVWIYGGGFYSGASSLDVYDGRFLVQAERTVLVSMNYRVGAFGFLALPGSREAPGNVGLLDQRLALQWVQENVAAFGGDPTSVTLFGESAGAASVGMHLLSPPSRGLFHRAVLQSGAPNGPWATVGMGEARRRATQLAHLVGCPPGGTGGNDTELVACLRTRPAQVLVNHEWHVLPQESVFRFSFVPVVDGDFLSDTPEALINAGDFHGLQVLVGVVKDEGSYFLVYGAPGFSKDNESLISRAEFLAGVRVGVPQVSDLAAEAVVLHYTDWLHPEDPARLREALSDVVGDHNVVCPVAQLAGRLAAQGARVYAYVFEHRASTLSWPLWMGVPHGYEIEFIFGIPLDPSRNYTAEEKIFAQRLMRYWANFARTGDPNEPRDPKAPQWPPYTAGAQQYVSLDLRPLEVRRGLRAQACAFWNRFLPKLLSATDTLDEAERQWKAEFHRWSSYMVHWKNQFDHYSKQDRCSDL

[6] = molecular target: Cholinesterase (Homo sapiens, UniProt P06276); experiment: Inhibition of BuChE (unknown origin)
Sequence of Cholinesterase (Homo sapiens, UniProt P06276) (P06276 whole entry): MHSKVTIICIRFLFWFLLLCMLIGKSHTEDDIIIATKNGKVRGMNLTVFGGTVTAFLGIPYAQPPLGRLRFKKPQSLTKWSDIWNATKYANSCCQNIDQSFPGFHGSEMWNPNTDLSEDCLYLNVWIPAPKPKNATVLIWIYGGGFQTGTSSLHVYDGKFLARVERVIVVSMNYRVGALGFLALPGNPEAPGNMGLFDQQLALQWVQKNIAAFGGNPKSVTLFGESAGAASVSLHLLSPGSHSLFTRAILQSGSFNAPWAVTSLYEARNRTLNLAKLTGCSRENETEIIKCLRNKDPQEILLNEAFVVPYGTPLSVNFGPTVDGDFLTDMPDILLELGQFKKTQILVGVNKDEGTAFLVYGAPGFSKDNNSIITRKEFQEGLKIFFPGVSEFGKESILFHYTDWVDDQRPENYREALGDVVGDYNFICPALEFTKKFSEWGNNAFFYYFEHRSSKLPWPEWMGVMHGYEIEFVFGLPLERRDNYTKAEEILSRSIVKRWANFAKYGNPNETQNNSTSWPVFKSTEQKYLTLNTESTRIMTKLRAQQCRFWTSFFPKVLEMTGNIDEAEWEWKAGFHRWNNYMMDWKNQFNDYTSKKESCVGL

[7] = molecular target: T2, Acetylcholinesterase; experiment: Inhibition of human AChE
[8] = molecular target: T3, Acetylcholinesterase (Electrophorus electricus, UniProt O42275); experiment: Inhibition of electric eel AChE
T3 sequence (O42275 whole entry): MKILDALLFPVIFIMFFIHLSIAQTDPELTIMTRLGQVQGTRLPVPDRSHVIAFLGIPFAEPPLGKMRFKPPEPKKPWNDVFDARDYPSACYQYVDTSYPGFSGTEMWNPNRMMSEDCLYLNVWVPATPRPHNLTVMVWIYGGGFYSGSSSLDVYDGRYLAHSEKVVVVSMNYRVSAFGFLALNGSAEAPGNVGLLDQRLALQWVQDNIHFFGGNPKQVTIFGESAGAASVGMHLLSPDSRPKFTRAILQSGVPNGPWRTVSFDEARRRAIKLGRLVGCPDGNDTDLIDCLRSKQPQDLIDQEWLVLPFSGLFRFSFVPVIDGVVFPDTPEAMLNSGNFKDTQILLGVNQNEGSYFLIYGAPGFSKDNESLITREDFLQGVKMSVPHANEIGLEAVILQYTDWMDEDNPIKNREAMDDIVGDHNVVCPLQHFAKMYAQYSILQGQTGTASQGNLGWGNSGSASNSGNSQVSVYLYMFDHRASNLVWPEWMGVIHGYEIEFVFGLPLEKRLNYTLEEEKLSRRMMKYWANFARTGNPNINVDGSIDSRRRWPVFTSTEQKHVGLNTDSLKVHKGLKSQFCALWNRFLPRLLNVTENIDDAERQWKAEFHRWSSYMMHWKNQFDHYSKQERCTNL

[9] = molecular target: Cholinesterase (Equus caballus, UniProt P81908); experiment: Inhibition of equine serum BuChE
Sequence of Cholinesterase (Equus caballus, UniProt P81908) (P81908 whole entry): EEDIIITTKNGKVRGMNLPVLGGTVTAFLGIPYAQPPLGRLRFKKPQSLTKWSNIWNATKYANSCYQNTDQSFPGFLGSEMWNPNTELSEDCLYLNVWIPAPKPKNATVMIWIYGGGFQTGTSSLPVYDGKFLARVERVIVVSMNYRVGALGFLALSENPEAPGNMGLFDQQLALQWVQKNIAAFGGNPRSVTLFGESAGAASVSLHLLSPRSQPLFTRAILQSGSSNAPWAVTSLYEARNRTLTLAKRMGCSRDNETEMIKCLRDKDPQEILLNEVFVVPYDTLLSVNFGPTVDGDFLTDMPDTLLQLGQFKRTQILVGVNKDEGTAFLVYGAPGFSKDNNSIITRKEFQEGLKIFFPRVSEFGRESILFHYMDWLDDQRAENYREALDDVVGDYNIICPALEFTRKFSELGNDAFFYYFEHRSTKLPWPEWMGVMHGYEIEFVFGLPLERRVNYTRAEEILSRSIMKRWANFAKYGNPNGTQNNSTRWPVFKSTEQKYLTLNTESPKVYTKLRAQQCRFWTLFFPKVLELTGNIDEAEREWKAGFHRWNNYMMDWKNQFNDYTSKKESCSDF

[10] = Ratio of IC50 for equine BuChE to IC50 for electric eel AChE
[11] = molecular target: T3, Acetylcholinesterase; experiment: Inhibition of electric eel AChE using acetylthiocholine incubated for 30 mins by measuring hydrolysis of substrate by Ellman's method
[12] = Inhibition of Kainate receptor (unknown origin); set-up: species or system Homo sapiens
[13] = molecular target: T1, Beta-secretase 1; experiment: Inhibition of BACE1 (unknown origin) incubated in dark for 90 mins by FRET assay
[14] = Antioxidant activity assessed as radical scavenging incubated for 90 mins in dark DPPH assay; type: functional
[15] = molecular target: T2, Acetylcholinesterase; experiment: Inhibition of AChE (unknown origin) incubated for 20 mins by TLC analysis
[16] = Antioxidant activity assessed as radical scavenging at 100 ug/ml by DPPH assay relative to control; type: functional
[17] = molecular target: T4, Amine oxidase [flavin-containing] B (Homo sapiens, UniProt P27338); experiment: Inhibition of MAO-B (unknown origin)
T4 sequence (P27338 whole entry): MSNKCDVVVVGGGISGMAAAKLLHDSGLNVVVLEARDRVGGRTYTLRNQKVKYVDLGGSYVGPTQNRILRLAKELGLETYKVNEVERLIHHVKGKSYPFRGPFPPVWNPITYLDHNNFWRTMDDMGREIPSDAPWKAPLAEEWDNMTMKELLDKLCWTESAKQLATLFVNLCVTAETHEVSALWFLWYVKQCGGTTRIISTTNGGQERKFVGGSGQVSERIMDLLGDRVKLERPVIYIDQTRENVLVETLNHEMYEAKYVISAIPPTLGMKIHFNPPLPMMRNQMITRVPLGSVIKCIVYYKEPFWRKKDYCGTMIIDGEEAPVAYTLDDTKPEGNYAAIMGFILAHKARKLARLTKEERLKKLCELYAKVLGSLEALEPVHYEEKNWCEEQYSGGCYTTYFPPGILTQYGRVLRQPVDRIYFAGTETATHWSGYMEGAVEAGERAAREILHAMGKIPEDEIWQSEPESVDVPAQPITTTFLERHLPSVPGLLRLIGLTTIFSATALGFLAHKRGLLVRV

[18] = molecular target: T5, Amine oxidase [flavin-containing] A (Homo sapiens, UniProt P21397); experiment: Inhibition of MAO-A (unknown origin)
T5 sequence (P21397 whole entry): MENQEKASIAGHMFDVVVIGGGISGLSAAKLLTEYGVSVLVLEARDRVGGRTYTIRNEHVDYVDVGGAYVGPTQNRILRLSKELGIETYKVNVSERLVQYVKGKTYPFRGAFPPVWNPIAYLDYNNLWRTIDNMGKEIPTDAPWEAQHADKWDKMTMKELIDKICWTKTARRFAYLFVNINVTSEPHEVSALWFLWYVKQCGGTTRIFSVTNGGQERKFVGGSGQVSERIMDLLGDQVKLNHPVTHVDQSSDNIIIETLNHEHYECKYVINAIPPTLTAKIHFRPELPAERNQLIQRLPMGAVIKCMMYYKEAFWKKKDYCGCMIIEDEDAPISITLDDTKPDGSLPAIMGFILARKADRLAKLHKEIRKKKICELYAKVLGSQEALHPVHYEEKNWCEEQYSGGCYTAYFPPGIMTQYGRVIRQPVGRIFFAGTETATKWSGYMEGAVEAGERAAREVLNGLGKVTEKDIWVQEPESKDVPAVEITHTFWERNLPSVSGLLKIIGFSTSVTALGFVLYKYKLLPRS

SMILES: O=c1c2cccc(Cl)c2[nH]c(=S)n1-c1c(F)cccc1F
- IC50 [1]: 6100 nM

SMILES: CC1c2cc(Oc3ccccc3)ccc2N=C(N)N1CCCC(=O)N(Cc1cnn(C)c1)C1CCCCC1 (stereo not given)
- IC50 [2]: 380 nM
- IC50 [3]: 140 nM
- IC50 [4]: 12500 nM

SMILES: OC1CCN2Cc3ccccc3N=C12 (stereo not given)
- IC50 [5]: 13700 nM
- IC50 [6]: 2600 nM

SMILES: c1cc2c(cc1OCCCN1CCCCC1)CN1CCCCC1=N2
- IC50 [7]: 225 nM
- IC50 [8]: 33.3 nM
- IC50 [9]: 6.55 nM
- Ratio IC50 [10]: 0.197

SMILES: O=c1c2cccc(Cl)c2[nH]c(=S)n1-c1ccccc1Br
- IC50 [1]: 1800 nM

SMILES: c1ccc2c(c1)CN1Cc3cc(OCCCN4CCCCC4)ccc3N=C21
- IC50 [7]: 142 nM
- IC50 [8]: 6.9 nM
- IC50 [9]: 4140 nM
- Ratio IC50 [10]: 600

SMILES: O=c1c2ccccc2nc2n1C(c1cncc3[nH]c4ccccc4c13)CC2O (stereo not given)
- IC50 [5]: 70500 nM
- IC50 [6]: 18200 nM

SMILES: Cn1cc(CN(C(=O)CCCN2C(N)=Nc3ccc(Oc4ccccc4)cc3C2CC2CCCCC2)C2CCCCC2)cn1 (stereo not given)
- IC50 [2]: 490 nM
- IC50 [3]: 140 nM
- IC50 [4]: 11800 nM

SMILES: CC1(c2ccc(Cl)cc2)Nc2cc(Cl)ccc2-c2ccnn21 (stereo not given)
- IC50 [11]: 358000 nM
- IC50 [6]: > 379000 nM

SMILES: O=C(CCN1CCCCC1)Nc1ccc2nc(-c3cc4ccccc4[nH]3)[nH]c(=O)c2c1
- IC50 [6]: 7320 nM

SMILES: O=Cc1ccn(-c2cc3c(cc2Cl)nc(O)n2nc(C(=O)O)cc32)c1
- IC50 [12]: 5100 nM

SMILES: Cn1c(N/N=C/c2ccc(O)cc2O)nc2ccccc2c1=O
- IC50 [13]: 27600 nM
- IC50 [14]: 8400 nM

SMILES: O=c1c2ccccc2nc2n1CC[C@@H]2[C@@H]1CCCN1
- IC50 [15]: 5710 nM
- IC50 [6]: > 500000 nM

SMILES: CSc1nc2nc(NN)c3ccccc3n2n1
- inhibition [16]: 85.9%

SMILES: NNC(=O)CN1C(=O)c2ccccc2NC1c1ccc2c(c1)OCO2 (stereo not given)
- IC50 [17]: 83000 nM
- IC50 [18]: 2.1 nM

SMILES: Cn1c(N/N=C/c2cccc(Cl)c2Cl)nc2ccccc2c1=O
- IC50 [14]: > 100000 nM

SMILES: O=C(O)c1cc2c3cc(-n4cnnc4)c(Cl)cc3[nH]c(=O)n2n1
- IC50 [12]: 5500 nM

SMILES: Cn1c(N/N=C(\C=C\c2cccc(Cl)c2)c2ccccc2)nc2ccccc2c1=O
- IC50 [17]: 1150 nM
- IC50 [18]: 468000 nM

SMILES: c1ccc2c(c1)CCN1Cc3cc(OCCCN4CCCCC4)ccc3N=C21
- IC50 [7]: 216 nM
- IC50 [8]: 5.5 nM
- IC50 [9]: 955 nM
- Ratio IC50 [10]: 174

SMILES: c1cc2c(cc1OCCCN1CCCCC1)CN1CCCCCC1=N2
- IC50 [7]: 820 nM
- IC50 [8]: 43 nM
- IC50 [9]: 12.7 nM
- Ratio IC50 [10]: 0.296

SMILES: O=c1c2ccccc2nc2n1CCC2 [DEOXYVASICINONE]
- IC50 [5]: 35200 nM
- IC50 [6]: 17800 nM

SMILES: CSc1nc2nc(N/N=C/c3cccnc3)c3ccccc3n2n1
- inhibition [16]: 62%

SMILES: c1cc2c(cc1OCCCN1CCCCC1)CN1CCCC1=N2
- IC50 [7]: 1100 nM
- IC50 [8]: 69.2 nM
- IC50 [9]: 122 nM
- Ratio IC50 [10]: 1.76
